Laboratory results taken from patent publication US20260144805A1, “CANNABIDIOL COMPOSITIONS FOR USE IN THE TREATMENT OF NEURODEGENERATIVE AND NEUROLOGICAL DISORDERS” (JAZZ PHARMACEUTICALS RESEARCH UK LIMITED, priority 2022, published 2026).

Legend:
rTg4510 mice = experiment: Open Field (OF) test, locomotor activity in rTg4510 mouse model of Alzheimer's Disease (Example 2; DS = DS-C); format: in vivo; details: for Locomotor activity totals, Mean / Locomotor activity totals, % vs Wild-type / Locomotor activity totals, % vs rTg4510: Doxycycline 200 ppm diet
Protocol: The aim of this study was to evaluate the efficacy of the present drug substance to modulate the agitation-like behaviours in the rTg4510 regulatable mouse model of Alzheimer's Disease (AD). Animals were tested in a behavioural assay, the Open Field (OF) test to measure locomotor activity (LMA). Activity was first assessed at a 21-week-old baseline to determine whether a hyperactive phenotype (to be used as a proxy for agitation) had developed and was further assessed at 2 subsequent ages in acute and chronic efficacy phases.
Ninety male rTg4510 (CC) mice and 15 wild-type (WW) (Tg(Camk2a-tTA)1Mmay Fgf14^Tg(tetO-MAPT*P301L)4510Kha/J, Jax strain #024854, licensed from the Mayo Clinic, USA) were split into 2 cohorts, 4 weeks apart in age; cohort 1 contained 53 mice (8 WW and 45 CC) and cohort 2 contained 52 mice (7 WW and 45 CC). Relative humidity was 55±15% throughout. Mice were housed in individually ventilated cages on a 12 h/12 h light/dark cycle (lights on at 07.00 h; illumination by red light during the dark phase), at an ambient temperature of 24±4° C. with free access to standard rodent maintenance diet and filtered water. Animals were allowed to acclimatise to the above conditions for 7-10 days prior to the study start. All housing groupings were preserved until the mice were approximately 5 months old, at which point they were singly housed.
Doxycycline administration: a subset of animals in cohort 2 (n=15) was administered 2× daily oral bolus doses of doxycycline hyclate (10 mg/kg p.o. in 5% glucose, Sigma Aldrich) at 13 weeks of age, followed by continuous exposure to normal lab chow containing 200 ppm doxycycline (Envigo Teklad 2018 TD.00502 no colourants, irradiated and vacuum-packed). All other animals received Envigo Teklad 2018 diet. All diet was provided ad libitum.
Following this regime, animals were evaluated in Open Field (OF) test, before being deeply anaesthetised at the end of the behavioural testing prior to biofluid sampling and tissue harvesting.
Specifically, the material was solubilised by the addition of 50 μL of 10% glacial acetic acid and making up to volume with 0.9% saline (Aquapharm, Animal Care, York, UK, Lot 21030311).
Drug Substance (DS): (i.e., DS-C, See Table B in Example 1) Dosing volume was 10 mL/kg and DS was formulated at the 150 mg/kg dose in a vehicle of ethanol: Kolliphor HS15: 0.9% saline (1:12:87, w/w/v) which were stored at room temperature and added at approximately 60° C. to form solutions which were subsequently stable at room temperature. All dosing formulations were protected from light whenever possible. Dosing solutions were made fresh on the day of dosing, with lower dose formulations being prepared by dilution from the 150 mg/kg dosing solution at room temperature.
Locomotor activity was assessed by OF test in the light phase of the light-dark cycle at weeks 21, 26 and 31. An automated beam break apparatus (40 cages) was used for the assessment of locomotor activity in rats and mice. Each cage had 4 beams; 1 ‘y’ and 3 ‘x’ which triggered a signal through capacitors when the beam was broken. Signals were collected by data loggers and processed accordingly. All animals were placed in the apparatus and spontaneous activity was assessed for a four-hour period between 0900 and 1300. Animals were then removed from the apparatus and returned to their home cages. LMA assessment was split over 2 consecutive days at each time point.
For locomotor data, a log (x+1) transformation was used. For weeks 21 & 26, means and SEMs were calculated from the transformed data. Analysis was by Friedman's two-way nonparametric ANOVA with treatment and test day as factors to compare each group to the WW animals, and (where appropriate) Doxycycline with the untreated rTg4510 group. For week 30, data excluding the WW and Doxycycline groups for each time period were analysed by robust regression model using M estimation, Huber weighting, using the default parameter c=1.345. […]

[1] = Brain weight of rTg4510 mice (Example 2); format: in vivo, mouse; details: rTg4510 CC mice administered doxycycline; end of study
Protocol: Brain Tissue Collection: Mice were decapitated and the brains rapidly extracted. Brains were briefly washed in saline and blot dried then hemisected, weighed separately and frozen on dry ice before storage at approximately −80° C.
Brain weights were analysed by 2-way analysis of variance with treatment and cohort as factors.

[2] = Weekly body weight of rTg4510 mice (Example 2); format: in vivo, mouse; details: rTg4510 mice fed doxycycline; 15 weeks of age
Protocol: Weekly bodyweight: all animals were weighed weekly until the end of the study.
Weekly body weight data were analysed by mixed linear model with the cohort by week and group by week interactions as fixed effects, animal as the random subject, using an AR (1)+RE correlation structure. Comparisons to the WW and rTg4510 (vehicle) groups for the same week were by the multiple t test.

[3] = tested on: harmaline model of Essential Tremor; experiment: Harmaline model of Essential Tremor, subjective tremor score 0-4 (Example 3; DS = DS-D); format: in vivo, rat; details: Propranolol 40 mg/kg i.p.
Protocol: All experiments were carried out in male Sprague Dawley rats (˜250 g). Naïve rats were acclimatised to the procedure room in their home cages up to 7 days following arrival at the test facility, with food and water available ad libitum. All animals were weighed at the beginning of the study and assigned to treatment groups (Vehicle n=6, treatment groups n=12/group).
Animals were dosed and tested as per Table G below, across 3 test days. Treatment groups were equally allocated across the 3 days of testing. The animals received either vehicle, DS at 30, 100 or 150 mg/kg (1 mL/kg, i.p.) or propranolol at 40 mg/kg (5 mL/kg, i.p.) (Compound 1), the animals were then dosed with vehicle or Harmaline at 10 mg/kg (5 mL/kg, i.p.) (Compound 2). The animals received DS at 30, 100 or 150 mg/kg (1 mL/kg, i.p.) 40 or 100 min before harmaline, with the first test point 20 mins later to give a pre-treatment time at first test point of 60 and 120 mins. Propanolol was dosed 30 min before harmaline and tested 20, 40 and 60 mins post-harmaline. At all test points post-harmaline, the animals were observed and given a tremor score of 0-4 (as per Table H).
Drug substance (i.e., DS-D, as described in Example 1) was formulated in 1:12:87 Ethanol, Kolliphor HS & Saline.
Propranolol (40 mg/kg i.p.) served as a disease-relevant comparator.
30 mg/kg drug substance required 1 hr pre-treatment whilst 100 and 150 mg/kg drug substance required 2 hr pre-treatment.
Behavioural observation data was analysed using a repeated measures two-way ANOVA followed by Dunnett's multiple comparison analysis (GraphPad, Prism v9.0.0) (p<0.05 considered significant).

[4] = Week 31, 0-240 minute period, doxycycline-treated group

In the case of `C[C@H]1c2cccc(O)c2C(=O)C2=C(O)[C@]3(O)C(=O)C(C(N)=O)=C(O)[C@@H](N(C)C)[C@@H]3[C@@H](O)[C@@H]21` [Doxycycline, doxycycline hyclate], the “Locomotor activity totals, Mean” value (rTg4510 mice; Week 21, 0-30 minutes) is reported as 855.0, the “Locomotor activity totals, Mean” value (rTg4510 mice; Week 21, 0-60 minutes) is reported as 1624.9 and the “Locomotor activity totals, Mean” value (rTg4510 mice; Week 21, 0-240 minutes) is reported as 3476.4. The “Locomotor activity totals, Mean” value (rTg4510 mice; Week 21, 30-60 minutes) was 749.9, the “Locomotor activity totals, Mean” value (rTg4510 mice; Week 21, 60-90 minutes) was 542.2 and the “Locomotor activity totals, Mean” value (rTg4510 mice; Week 21, 60-120 minutes) was 880.1. The “Locomotor activity totals, Mean” value (rTg4510 mice; Week 21, 90-120 minutes) was 283.2, the “Locomotor activity totals, Mean” value (rTg4510 mice; Week 21, 120-150 minutes) was 227.4 and the “Locomotor activity totals, Mean” value (rTg4510 mice; Week 21, 120-180 minutes) was 521.1. The “Locomotor activity totals, Mean” value (rTg4510 mice; Week 21, 150-180 minutes) was 181.8, the “Locomotor activity totals, Mean” value (rTg4510 mice; Week 21, 180-210 minutes) was 71.1 and the “Locomotor activity totals, Mean” value (rTg4510 mice; Week 21, 180-240 minutes) was 212.8. The “Locomotor activity totals, Mean” value (rTg4510 mice; Week 21, 210-240 minutes) was 52.4, the “Locomotor activity totals, Mean” value (rTg4510 mice; Week 26, 0-30 minutes) was 903.7 and the “Locomotor activity totals, Mean” value (rTg4510 mice; Week 26, 0-60 minutes) was 1606.6. For the same molecule, the “Locomotor activity totals, Mean” value (rTg4510 mice; Week 26, 0-240 minutes) was 3435.5, the “Locomotor activity totals, Mean” value (rTg4510 mice; Week 26, 30-60 minutes) was 664.6 and the “Locomotor activity totals, Mean” value (rTg4510 mice; Week 26, 60-90 minutes) was 489.8. The “Locomotor activity totals, Mean” value (rTg4510 mice; Week 26, 60-120 minutes) was 770.3, the “Locomotor activity totals, Mean” value (rTg4510 mice; Week 26, 90-120 minutes) was 186.7 and the “Locomotor activity totals, Mean” value (rTg4510 mice; Week 26, 120-150 minutes) was 157.0. The “Locomotor activity totals, Mean” value (rTg4510 mice; Week 26, 120-180 minutes) was 459.9, the “Locomotor activity totals, Mean” value (rTg4510 mice; Week 26, 150-180 minutes) was 142.2 and the “Locomotor activity totals, Mean” value (rTg4510 mice; Week 26, 180-210 minutes) was 185.3. For the same molecule, the “Locomotor activity totals, Mean” value (rTg4510 mice; Week 26, 180-240 minutes) was 362.6, the “Locomotor activity totals, Mean” value (rTg4510 mice; Week 26, 210-240 minutes) was 41.3 and the “Locomotor activity totals, % vs Wild-type” value (rTg4510 mice; Week 31, 0-30 minutes) was 143.2%. For the same molecule, the “Locomotor activity totals, % vs rTg4510” value (rTg4510 mice; Week 31, 0-30 minutes) was 58.7%, the “Locomotor activity totals, Mean” value (rTg4510 mice; Week 31, 0-30 minutes) was 744.04 and the “Locomotor activity totals, % vs Wild-type” value (rTg4510 mice; Week 31, 0-60 minutes) was 144.7%. The “Locomotor activity totals, % vs rTg4510” value (rTg4510 mice; Week 31, 0-60 minutes) was 47.6%, the “Locomotor activity totals, Mean” value (rTg4510 mice; Week 31, 0-60 minutes) was 1216.28 and the “activity as % of the activity seen in the WW animals” value (rTg4510 mice; [4]) was 100.6%. The “activity as % of the activity seen in the rTg4510(vehicle) animals” value (rTg4510 mice; [4]) was 26.2%, the “Locomotor activity totals, % vs Wild-type” value (rTg4510 mice; Week 31, 30-60 minutes) was 141.7% and the “Locomotor activity totals, % vs rTg4510” value (rTg4510 mice; Week 31, 30-60 minutes) was 35.3%. The “Locomotor activity totals, Mean” value (rTg4510 mice; Week 31, 30-60 minutes) was 445.74, the “Locomotor activity totals, % vs Wild-type” value (rTg4510 mice; Week 31, 60-90 minutes) was 153.3% and the “Locomotor activity totals, % vs rTg4510” value (rTg4510 mice; Week 31, 60-90 minutes) was 37.0%. The “Locomotor activity totals, Mean” value (rTg4510 mice; Week 31, 60-90 minutes) was 231.53, the “Locomotor activity totals, % vs Wild-type” value (rTg4510 mice; Week 31, 60-120 minutes) was 176.8% and the “Locomotor activity totals, % vs rTg4510” value (rTg4510 mice; Week 31, 60-120 minutes) was 49.4%. The “Locomotor activity totals, Mean” value (rTg4510 mice; Week 31, 60-120 minutes) was 477.89, the “Locomotor activity totals, % vs Wild-type” value (rTg4510 mice; Week 31, 90-120 minutes) was 324.4% and the “Locomotor activity totals, % vs rTg4510” value (rTg4510 mice; Week 31, 90-120 minutes) was 110.8%. For the same molecule, the “Locomotor activity totals, Mean” value (rTg4510 mice; Week 31, 90-120 minutes) was 165.38, the “Locomotor activity totals, % vs Wild-type” value (rTg4510 mice; Week 31, 120-150 minutes) was 134.8% and the “Locomotor activity totals, % vs rTg4510” value (rTg4510 mice; Week 31, 120-150 minutes) was 63.1%. For the same molecule, the “Locomotor activity totals, Mean” value (rTg4510 mice; Week 31, 120-150 minutes) was 105.17, the “Locomotor activity totals, % vs Wild-type” value (rTg4510 mice; Week 31, 150-180 minutes) was 135.0% and the “Locomotor activity totals, % vs rTg4510” value (rTg4510 mice; Week 31, 150-180 minutes) was 33.9%. The “Locomotor activity totals, Mean” value (rTg4510 mice; Week 31, 150-180 minutes) was 28.13, the “Locomotor activity totals, % vs Wild-type” value (rTg4510 mice; Week 31, 180-210 minutes) was 8.9% and the “Locomotor activity totals, % vs rTg4510” value (rTg4510 mice; Week 31, 180-210 minutes) was 5.6%. The “Locomotor activity totals, Mean” value (rTg4510 mice; Week 31, 180-210 minutes) was 1.72, the “Locomotor activity totals, % vs Wild-type” value (rTg4510 mice; Week 31, 210-240 minutes) was 90.8% and the “Locomotor activity totals, % vs rTg4510” value (rTg4510 mice; Week 31, 210-240 minutes) was 117.5%. For the same molecule, the “Locomotor activity totals, Mean” value (rTg4510 mice; Week 31, 210-240 minutes) was 16.18, the mean brain weight [1] was 408.8 ± 6.1 mg and the body weight [2] was 29.14 ± 0.50 g.
With `CC(C)NCC(O)COc1cccc2ccccc12` (stereo not shown) [Propranolol] the “deficits induced by harmaline vs vehicle/harmaline group” value ([3]; 20, 40 and 60 min post-harmaline) was “significantly attenuated”, the “Tremor Score (median ± IQR)” value ([3]; 20 mins post-harmaline) was 0.0 ± 0.0 and the “Tremor Score (median ± IQR)” value ([3]; 40 mins post-harmaline) was 0.0 ± 0.0. The “Tremor Score (median ± IQR)” value ([3]; 60 mins post-harmaline) was 0.0 ± 0.75.
